Source: patent US20180305332A1, “Bispiperidinyl Derivatives as Liver X Receptor Beta Agonists, Compositions, and Their Use” (Merck Sharp & Dohme Corp., priority 2015, published 2018)

What was measured:
[1] = molecular target: T1, GST tagged LXRbeta LBD (ligand binding domain) (Homo sapiens, UniProt P55055); assay: LanthaScreen TR-FRET Liver X Receptor Coactivator Assay, LXR beta-LBD; assay type: biochemical; conditions: relative to reference T0901317; for EC50: Inflection Point (potency), co-activator recruitment, read-out: LXR beta IP; for Emax: activity at max dose (efficacy), read-out: LXR beta act @ max dose (%)
T1 construct: purchased Invitrogen pv4658.pps
T1 sequence (P55055 222-460 limits assumed): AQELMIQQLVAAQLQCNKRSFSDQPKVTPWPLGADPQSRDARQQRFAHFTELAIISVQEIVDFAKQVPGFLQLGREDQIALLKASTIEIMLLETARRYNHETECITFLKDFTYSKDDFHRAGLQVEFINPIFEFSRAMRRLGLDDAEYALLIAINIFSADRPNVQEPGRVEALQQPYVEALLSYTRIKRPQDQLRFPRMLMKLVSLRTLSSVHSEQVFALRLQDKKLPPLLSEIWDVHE
Method in brief: (§1)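 LXR LBD protein mixed with test compound, then fluorescein-labelled coactivator peptide plus terbium anti-GST antibody added; after room-temperature incubation, TR-FRET read. Inflection point and Emax derived from coactivator recruitment relative to reference dual agonist T0901317.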

[2] = molecular target: T2, GST tagged LXRalpha LBD (ligand binding domain) (Homo sapiens, UniProt Q13133); assay: LanthaScreen TR-FRET Liver X Receptor Coactivator Assay, LXR alpha-LBD; assay type: biochemical; conditions: relative to reference T0901317; for EC50 / LXR alpha IP (nM): Inflection Point (potency), co-activator recruitment; for EC50: read-out: LXR alpha IP; for Emax: activity at max dose (efficacy), read-out: LXR alpha act @ max dose (%)
T2 construct: purchased Invitrogen pv4655
T2 sequence (Q13133 209-447 limits assumed): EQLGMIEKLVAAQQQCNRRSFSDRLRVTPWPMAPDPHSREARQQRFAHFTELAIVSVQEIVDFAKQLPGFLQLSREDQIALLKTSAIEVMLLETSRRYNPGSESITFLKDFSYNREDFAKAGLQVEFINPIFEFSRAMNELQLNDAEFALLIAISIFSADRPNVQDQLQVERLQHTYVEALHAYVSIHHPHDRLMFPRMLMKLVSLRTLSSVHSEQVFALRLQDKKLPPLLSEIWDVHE
Method in brief: as §1

SMILES | EC50 [1] [nM] | Emax [1] [%] | EC50 [2] [nM] | Emax [2] [%] | LXR alpha IP (nM) [2]
CN(C)C(=O)c1ccc(N2CCC(C3CCN(C(=O)C4(c5cc(F)cc(F)c5)CCCC4)CC3)CC2)cc1Cl [Example A-79, 2-chloro-4-(1′-{[1-(3,5-difluorophenyl)cyclopentyl]carbonyl}-4,4′-bipiperidin-1-yl)-N,N-dimethylbenzamide] | 216 | 125 | 2540 | 35 | –
CN(C)C(=O)c1ccc(N2CCC(C3CCN(C(=O)C4(C(F)(F)F)CCCCC4)CC3)CC2)cc1Cl [Example A-27, 2-chloro-N,N-dimethyl-4-(1′-{[1-(trifluoromethyl)cyclohexyl]carbonyl}-4,4′-bipiperidin-1-yl)benzamide] | 26 | 119 | 300 | 70 | –
CN(C)C(=O)c1ccc(N2CCC(C3CCN(C(=O)C4(c5ccccc5)CC4)CC3)CC2)cc1Cl [Example A-39, 2-chloro-N,N-dimethyl-4-{1′-[(1-phenylcyclopropyl)carbonyl]-4,4′-bipiperidin-1-yl}benzamide] | 140 | 101 | 5510 | 32 | –
CN(C)C(=O)c1ccc(N2CCC(C3CCN(C(=O)c4c(F)cccc4F)CC3)CC2)cc1Cl [Example A-23, 2-chloro-4-{1′-[(2,6-difluorophenyl)carbonyl]-4,4′-bipiperidin-1-yl}-N,N-dimethylbenzamide] | 79 | 92 | 2980 | 23 | –
CN(C)C(=O)c1ccc(N2CCC(C3CCN(C(=O)C(O)(C(F)(F)F)C(F)(F)F)CC3)CC2)cc1Cl [Example A-35, 2-chloro-N,N-dimethyl-4-{1′-[3,3,3-trifluoro-2-hydroxy-2-(trifluoromethyl)propanoyl]-4,4′-bipiperidin-1-yl}benzamide] | 7 | 86 | 217 | 59 | –
Cc1ccccc1C1(C(=O)N2CCC(C3CCN(c4ccc(C(=O)N(C)C)c(Cl)c4)CC3)CC2)CCC1 [Example A-75, 2-chloro-N,N-dimethyl-4-(1′-{[1-(2-methylphenyl)cyclobutyl]carbonyl}-4,4′-bipiperidin-1-yl)benzamide] | 18 | 118 | 446 | 65 | –
CN(C)C(=O)c1ccc(N2CCC(C3CCN(C(=O)C4(c5ccc(Cl)cc5)CCC4)CC3)CC2)cc1Cl [Example A-47, 2-chloro-4-(1′-{[1-(4-chlorophenyl)cyclobutyl]carbonyl}-4,4′-bipiperidin-1-yl)-N,N-dimethylbenzamide] | 178 | 78 | – | 4 | NO IP
CN(C)C(=O)c1ccc(N2CCC(C3CCN(C(=O)C(O)(C4CC4)C(F)(F)F)CC3)CC2)cc1Cl (single isomer, unassigned) [Example A-8, 2-chloro-4-[1′-(2-cyclopropyl-3,3,3-trifluoro-2-hydroxypropanoyl)-4,4′-bipiperidin-1-yl]-N,N-dimethylbenzamide] | 247 | 95 | 1810 | 60 | –
COc1ccc(C2(C(=O)N3CCC(C4CCN(c5ccc(C(=O)N(C)C)c(Cl)c5)CC4)CC3)CCCC2)cc1 [Example A-46, 2-chloro-4-(1′-{[1-(4-methoxyphenyl)cyclopentyl]carbonyl}-4,4′-bipiperidin-1-yl)-N,N-dimethylbenzamide] | 187 | 34 | – | 0 | NO IP
CN(C)C(=O)c1ccc(N2CCC(C3CCN(C(=O)C(C)(C)c4ccc(O)cc4)CC3)CC2)cc1Cl [Example A-58, 2-chloro-4-{1′-[2-(4-hydroxyphenyl)-2-methylpropanoyl]-4,4′-bipiperidin-1-yl}-N,N-dimethylbenzamide] | 100 | 112 | 3690 | 59 | –
CN(C)C(=O)c1ccc(N2CCC(C3CCN(C(=O)C4(c5ccc(F)cc5)CCC4)CC3)CC2)cc1Cl [Example A-18, 2-chloro-4-(1′-{[1-(4-fluorophenyl)cyclobutyl]carbonyl}-4,4′-bipiperidin-1-yl)-N,N-dimethylbenzamide] | 207 | 81 | 4200 | 15 | –

The remaining lines, values ahead:

EC50 [1] [nM] | Emax [1] [%] | EC50 [2] [nM] | Emax [2] [%] | LXR alpha IP (nM) [2] | SMILES
108 | 74 | 1920 | 32 | – | CC(C)C(O)(C(=O)N1CCC(C2CCN(c3ccc(C(=O)N4CCCC4)c(Cl)c3)CC2)CC1)C(F)(F)F (stereo not shown) [Example E-7, 2-({1′-[3-chloro-4-(pyrrolidin-1-ylcarbonyl)phenyl]-4,4′-bipiperidin-1-yl}carbonyl)-1,1,1-trifluoro-3-methylbutan-2-ol]
35 | 93 | 1460 | 55 | – | CN(Cc1noc(C2CC2)n1)C(=O)c1ccc(N2CCC(C3CCN(C(=O)[C@](O)(c4ccccc4)C(F)(F)F)CC3)CC2)cc1Cl [Example E-54, 2-chloro-N-[(5-cyclopropyl-1,2,4-oxadiazol-3-yl)methyl]-N-methyl-4-{1′-[(2R)-3,3,3-trifluoro-2-hydroxy-2-phenylpropanoyl]-4,4′-bipiperidin-1-yl}benzamide]
118 | 74 | 1680 | 54 | – | O=C(NC1CN(C(=O)c2ccc(N3CCC(C4CCN(C(=O)[C@](O)(c5ccccc5)C(F)(F)F)CC4)CC3)cc2Cl)C1)c1ccccc1 [Example E-41, N-{1-[(2-chloro-4-{1′-[(2R)-3,3,3-trifluoro-2-hydroxy-2-phenylpropanoyl]-4,4′-bipiperidin-1-yl}phenyl)carbonyl]azetidin-3-yl}benzamide]
332 | 88 | 769 | 15 | – | CC1CCCN1C(=O)c1ccc(N2CCC(C3CCN(C(=O)[C@](O)(c4ccccc4)C(F)(F)F)CC3)CC2)cc1Cl (stereo partly drawn) [Example E-25, (2R)-3-(1′-{3-chloro-4-[(2-methylpyrrolidin-1-yl)carbonyl]phenyl}-4,4′-bipiperidin-1-yl)-1,1,1-trifluoro-3-oxo-2-phenylpropan-2-ol]
383 | 63 | – | 13 | NO IP | CCC1CCN(C(=O)c2ccc(N3CCC(C4CCN(C(=O)[C@](O)(c5ccccc5)C(F)(F)F)CC4)CC3)cc2Cl)C1 (stereo partly drawn) [Example E-29, (2R)-3-(1′-{3-chloro-4-[(3-ethylpyrrolidin-1-yl)carbonyl]phenyl}-4,4′-bipiperidin-1-yl)-1,1,1-trifluoro-3-oxo-2-phenylpropan-2-ol]
100 | 94 | 1280 | 29 | – | CCCN(C)C(=O)c1ccc(N2CCC(C3CCN(C(=O)[C@](O)(c4ccccc4)C(F)(F)F)CC3)CC2)cc1Cl [Example E-61, 2-chloro-N-methyl-N-propyl-4-{1′-[(2R)-3,3,3-trifluoro-2-hydroxy-2-phenylpropanoyl]-4,4′-bipiperidin-1-yl}benzamide]
51 | 94 | 180 | 67 | – | CC(C)C(O)(C(=O)N1CCC(C2CCN(c3ccc(C(N)=O)c(Cl)c3)CC2)CC1)C(F)(F)F (stereo not shown) [Example E-4, 2-chloro-4-{1′-[2-hydroxy-3-methyl-2-(trifluoromethyl)butanoyl]-4,4′-bipiperidin-1-yl}benzamide]
175 | 106 | 1720 | 26 | – | COCCCN(C)C(=O)c1ccc(N2CCC(C3CCN(C(=O)[C@](O)(c4ccccc4)C(F)(F)F)CC3)CC2)cc1Cl [Example E-48, 2-chloro-N-(3-methoxyproply)-N-methyl-4-{1′-[(2R)-3,3,3-trifluoro-2-hydroxy-2-phenylpropanoyl]-4,4′-bipiperidin-1-yl}benzamide]
73 | 114 | 1230 | 43 | – | CN(C)C(=O)c1ccc(N2CCC(C3CCN(C(=O)C4(c5ccccc5)CCC4)CC3)CC2)nc1Cl [Example B-14, 2-chloro-N,N-dimethyl-6-{1′-[(1-phenylcyclobutyl)carbonyl]-4,4′-bipiperidin-1-yl}pyridine-3-carboxamide]
111 | 101 | 761 | 53 | – | CC(C)N(C)C(=O)c1ccc(N2CCC(C3CCN(C(=O)C(O)(C(C)C)C(F)(F)F)CC3)CC2)cc1Cl (stereo not shown) [Example E-6, 2-chloro-4-{1′-[2-hydroxy-3-methyl-2-(trifluoromethyl)butanoyl]-4,4′-bipiperidin-1-yl}-N-methyl-N-(1-methylethyl)benzamide]
184 | 77 | 1380 | 30 | – | CN(Cc1nccs1)C(=O)c1ccc(N2CCC(C3CCN(C(=O)[C@](O)(c4ccccc4)C(F)(F)F)CC3)CC2)cc1Cl [Example E-49, 2-chloro-N-methyl-N-(1,3-thiazol-2-ylmethyl)-4-{1′-[(2R)-3,3,3-trifluoro-2-hydroxy-2-phenylpropanoyl]-4,4′-bipiperidin-1-yl}benzamide]
